Literature values, collected in patent US20110268770A1, “CHEWABLE GELLED EMULSIONS” (PROBIO ASA, priority 2008, published 2011).

Settings: commercially available statins

SMILES | solubility class (water-soluble or lipid-soluble)
CC[C@H](C)C(=O)O[C@H]1C[C@@H](C)C=C2C=C[C@H](C)[C@H](CC[C@@H]3C[C@@H](O)CC(=O)O3)[C@H]21 [lovastatin] | lipid-soluble
CC[C@H](C)C(=O)O[C@H]1C[C@H](O)C=C2C=C[C@H](C)[C@H](CC[C@@H](O)C[C@@H](O)CC(=O)O)[C@H]21 [pravastatin] | water-soluble
CC(C)c1nc(N(C)S(C)(=O)=O)nc(-c2ccc(F)cc2)c1/C=C/[C@@H](O)C[C@@H](O)CC(=O)O [rosuvastatin] | water-soluble
